Where a chain is given by its changes, count along the chain named. Where two headings read alike, the source gives them in different places.
Legend:
Assay type in all cases: cell-based
ETA WT = target: T1, ETA WT (Homo sapiens, UniProt P25101); test: Calcium mobilization assay, antagonist mode (ET-1 stimulated), CHO-K1 cells
T1 construct: expressed in transfected cells; host or cells: CHO-K1
T1 sequence (P25101 21-427): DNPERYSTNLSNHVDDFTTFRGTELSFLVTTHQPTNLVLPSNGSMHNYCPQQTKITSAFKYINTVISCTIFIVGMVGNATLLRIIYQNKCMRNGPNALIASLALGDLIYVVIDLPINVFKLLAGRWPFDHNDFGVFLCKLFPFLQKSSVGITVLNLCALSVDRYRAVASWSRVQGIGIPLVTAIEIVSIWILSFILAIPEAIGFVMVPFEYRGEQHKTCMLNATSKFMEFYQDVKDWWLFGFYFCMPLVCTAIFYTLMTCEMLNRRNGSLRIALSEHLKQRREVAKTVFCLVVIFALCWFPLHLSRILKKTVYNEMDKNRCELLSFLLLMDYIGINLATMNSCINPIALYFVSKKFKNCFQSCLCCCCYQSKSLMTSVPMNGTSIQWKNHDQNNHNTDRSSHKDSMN
Procedure: (§1) CHO-K1 cells were cultured in Ham’s F-12K (Kaighn’s) Medium (Gibco-Thermo Fisher Scientific) supplemented with 10% (v/v) fetal bovine serum (FBS; Gibco-Thermo Fisher Scientific), and 100 U/mL Penicillin-Streptomycin (Gibco-Thermo Fisher Scientific) in a humidified incubator at 37 °C with 5% CO2. Cells were seeded in 6-cm dishes overnight; when the density reached 60%–80%, the cells were transferred to F12K Medium supplemented with 10% FBS and transfected with 1.5 μg DNA encoding the ETA WT or mutants or 3 μg DNA encoding the ETB WT or mutants using TransIT2020 (Mirus Biosciences). The next day, transfected cells were harvested from the plate using Versene buffer (Gibco-Thermo Fisher Scientific) and seeded into black-sided, clear-bottomed 384-well plates (Agilent) at a density of 1,5000 cells per well. After 20 h, the 1% dFBS medium was removed, and cells were loaded with 20 μL/well of 1× Calcium 6 dye (Molecular Devices) and incubated at 37 °C for 1 h in the dark. […] All data were analyzed using GraphPad Prism 8 and the data are from at least three independent replicate experiments. All plots are shown as means ± SEM. Data were determined using one-way ANOVA followed by Dunnett’s multiple test compared with WT. The top value was normalized to 100% and the bottom value was normalized to 0% for the final presentation. Nonlinear curve fit was performed using a four-parameter logistic equation (log (agonist vs response) or log (inhibitor vs response)).

ETA F161^3.28A = target: T2, ETA F161^3.28A (Homo sapiens, UniProt P25101, F161A); test: Calcium mobilization assay, antagonist mode
T2 construct: expressed in transfected cells; host or cells: CHO-K1
T2 sequence (P25101 21-427 F161A): T1 sequence (P25101 21-427) with F141A
Procedure: as §1

ETA Y129^2.53H = target: T3, ETA Y129^2.53H (Homo sapiens, UniProt P25101, Y129H); test: Calcium mobilization assay, antagonist mode
T3 construct: expressed in transfected cells; host or cells: CHO-K1
T3 sequence (P25101 21-427 Y129H): T1 sequence (P25101 21-427) with Y109H
Procedure: as §1

ETA Y129^2.53A = target: T4, ETA Y129^2.53A (Homo sapiens, UniProt P25101, Y129A); test: Calcium mobilization assay, antagonist mode
T4 construct: expressed in transfected cells; host or cells: CHO-K1
T4 sequence (P25101 21-427 Y129A): T1 sequence (P25101 21-427) with Y109A
Procedure: as §1

ETA R326^6.55A = target: T5, ETA R326^6.55A (Homo sapiens, UniProt P25101, R326A); test: Calcium mobilization assay, antagonist mode
T5 construct: expressed in transfected cells; host or cells: CHO-K1
T5 sequence (P25101 21-427 R326A): T1 sequence (P25101 21-427) with R306A
Procedure: as §1

ETA L322^6.51A = target: T6, ETA L322^6.51A (Homo sapiens, UniProt P25101, L322A); test: Calcium mobilization assay, antagonist mode
T6 construct: expressed in transfected cells; host or cells: CHO-K1
T6 sequence (P25101 21-427 L322A): T1 sequence (P25101 21-427) with L302A
Procedure: as §1

ETA Y129^2.53F = target: T7, ETA Y129^2.53F (Homo sapiens, UniProt P25101, Y129F); test: Calcium mobilization assay, antagonist mode
T7 construct: expressed in transfected cells; host or cells: CHO-K1
T7 sequence (P25101 21-427 Y129F): T1 sequence (P25101 21-427) with Y109F
Procedure: as §1

ETA L259^5.42A = target: T8, ETA L259^5.42A (Homo sapiens, UniProt P25101, L259A); test: Calcium mobilization assay, antagonist mode
T8 construct: expressed in transfected cells; host or cells: CHO-K1
T8 sequence (P25101 21-427 L259A): T1 sequence (P25101 21-427) with L239A
Procedure: as §1

ETA Y263^5.46A = target: T9, ETA Y263^5.46A (Homo sapiens, UniProt P25101, Y263A); test: Calcium mobilization assay, antagonist mode
T9 construct: expressed in transfected cells; host or cells: CHO-K1
T9 sequence (P25101 21-427 Y263A): T1 sequence (P25101 21-427) with Y243A
Procedure: as §1

[1] = target: T10, ETB V177^3.28F+H150^2.53Y (Homo sapiens, UniProt P24530, H150Y/V177F); test: Calcium mobilization assay, antagonist mode
T10 construct: expressed in transfected cells; host or cells: CHO-K1
T10 sequence (P24530 27-442 H150Y/V177F): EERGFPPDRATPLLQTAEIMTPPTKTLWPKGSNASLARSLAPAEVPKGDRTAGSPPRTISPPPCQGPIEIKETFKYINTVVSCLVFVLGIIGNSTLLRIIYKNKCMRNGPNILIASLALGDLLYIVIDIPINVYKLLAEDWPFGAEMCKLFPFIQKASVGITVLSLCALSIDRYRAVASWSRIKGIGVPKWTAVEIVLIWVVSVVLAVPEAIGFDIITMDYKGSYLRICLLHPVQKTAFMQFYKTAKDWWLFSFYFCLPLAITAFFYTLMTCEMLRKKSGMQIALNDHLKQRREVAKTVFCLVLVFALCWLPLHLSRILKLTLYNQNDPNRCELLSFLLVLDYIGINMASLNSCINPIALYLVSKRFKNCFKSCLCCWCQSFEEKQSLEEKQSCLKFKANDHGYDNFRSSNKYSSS
Procedure: as §1

ETB H150^2.53Y = target: T11, ETB H150^2.53Y (Homo sapiens, UniProt P24530, H150Y); test: Calcium mobilization assay, antagonist mode
T11 construct: expressed in transfected cells; host or cells: CHO-K1
T11 sequence (P24530 27-442 H150Y): T10 sequence (P24530 27-442 H150Y/V177F) with F151V
Procedure: as §1

[2] = CHO-K1 cells, n = 5, read-out: IC50, inhibition activity on ETA in calcium mobilization assay
[3] = read-out: pIC50±S.E.M. (converted)

| SMILES | IC50 (ETA WT; [2]) [nM] | IC50 (ETA WT; [3]) [nM] | IC50 (ETA F161^3.28A) [nM] | IC50 (ETA Y129^2.53H) [nM] | IC50 (ETA Y129^2.53A) [nM] | IC50 (ETA R326^6.55A) [nM] | IC50 (ETA L322^6.51A) [nM] | IC50 (ETA Y129^2.53F) [nM] | IC50 (ETA L259^5.42A) [nM] | IC50 (ETA Y263^5.46A) [nM] | IC50 [1] [nM] | IC50 (ETB H150^2.53Y) [nM] |
| --- | --- | --- | --- | --- | --- | --- | --- | --- | --- | --- | --- | --- |
| COC(c1ccccc1)(c1ccccc1)[C@H](Oc1nc(C)cc(C)n1)C(=O)O [ambrisentan] | 0.6 | 0.389 | 89.1 | 575 | 204 | 7940 | 575 | 2.34 | 15500 | 813 | – | – |
| CCCNS(=O)(=O)Nc1ncnc(OCCOc2ncc(Br)cn2)c1-c1ccc(Br)cc1 [macitentan, N-[5-(4-bromophenyl)-6-[2-[(5-bromo-2-pyrimidinyl)oxy]ethoxy]-4-pyrimidinyl]-N’-propylsulfamide] | 1.3 | 1.17 | 17.8 | 891 | 1020 | 36.3 | 347 | 1.2 | 234 | 15.5 | – | – |
| COc1nc(C)cnc1NS(=O)(=O)c1cccnc1-c1ccc(-c2nnco2)cc1 [zibotentan] | – | – | – | – | – | – | – | – | – | – | 33100 | 56200 |
